# ChEMBL document CHEMBL1165930, “The anticancer activity of 3- and 10-bromofascaplysins is mediated by caspase-8, -9, -3-dependent apoptosis” (Bioorg Med Chem, 2010)
# Calls of active or inactive are those of the source. No cut-off for these calls is given here.
# Key:
# HL-60 [1] = experiment: Induction of apoptosis in human HL60 cells assessed as decrease in procaspase-3 level at 250 nM after 24 hrs by Western blot analysis; assay type: functional, cell-based
# JB6 Cl41 [2] = experiment: Effect on EGF-stimulated proliferation of mouse JB6 Cl41 cells at 125 nM after 22 hrs by MTS assay; assay type: functional, cell-based
# [3] = Effect on EGF-stimulated proliferation of JNK1-expressing mouse JB6 Cl41 cells assessed as cell viability at 125 nM after 22 hrs by MTS assay; assay type: functional; details: JB6 Cl41, 22 h, read-out: Activity
# THP-1 [4] = experiment: Anticancer activity in human THP1 cells assessed as inhibition of colony formation by anchorage-independent soft agar assay; assay type: functional
# [5] = Effect on EGF-stimulated proliferation of p38-expressing mouse JB6 Cl41 cells assessed as cell viability at 250 nM after 22 hrs by MTS assay; assay type: functional; details: JB6 Cl41, 22 h, read-out: Activity
# JB6 Cl41 [6] = experiment: Inhibition of EGF-stimulated neoplastic transformation of mouse JB6 Cl41 cells by anchorage-independent soft agar assay; assay type: functional, cell-based
# JB6 Cl41 [7] = experiment: Effect on EGF-stimulated proliferation of p38-expressing mouse JB6 Cl41 cells at 125 nM after 22 hrs by MTS assay; assay type: functional, cell-based
# HL-60 [8] = experiment: Induction of apoptosis in human HL60 cells assessed as early apoptotic cells at 500 to 1000 nM after 24 hrs by FITC-conjugated annexin V and propidium iodide staining-based flow cytometry; assay type: functional
# [9] = Cytotoxicity against human SNUC4 cells after 22 hrs by MTS assay; assay type: functional, cell-based; details: SNU-C4, 22 h
# THP-1 [10] = experiment: Induction of apoptosis in human THP1 cells assessed as viable cells at 500 nM after 24 hrs by FITC-conjugated annexin V and propidium iodide staining-based flow cytometry; assay type: functional; details: THP-1, 24 h, read-out: Activity
# HL-60 [11] = experiment: Induction of apoptosis in human HL60 cells assessed as decrease in procaspase-3 level at 500 nM after 24 hrs by Western blot analysis; assay type: functional, cell-based
# [12] = Effect on proliferation of p53-expressing mouse JB6 Cl41 cells assessed as cell viability at 375 to 500 nM after 6 hrs; assay type: functional
# [13] = biological target: Cellular tumor antigen p53 (Mus musculus) (UniProt P02340); experiment: Inhibition of p53-mediated transcriptional activity in mouse JB6 Cl41 cells at 125 to 250 nM after 24 hrs by luciferase reporter gene assay relative to control; assay type: cell-based
# HL-60 [14] = experiment: Induction of apoptosis in human HL60 cells assessed as decrease in Bid protein level at 250 nM after 24 hrs by Western blot analysis; assay type: functional, cell-based
# HL-60 [15] = experiment: Induction of apoptosis in human HL60 cells assessed as early apoptotic cells at 50 nM after 24 hrs by FITC-conjugated annexin V and propidium iodide staining-based flow cytometry; assay type: functional
# THP-1 [16] = experiment: Induction of apoptosis in human THP1 cells assessed as early apoptotic cells at 1000 nM after 24 hrs by FITC-conjugated annexin V and propidium iodide staining-based flow cytometry; assay type: functional
# [17] = biological target: Transcription factor Jun (Mus musculus) (UniProt P05627); experiment: Induction of AP1-mediated transcriptional activity in mouse JB6 Cl41 cells at 125 to 250 nM after 24 hrs by luciferase reporter gene assay relative to control; assay type: cell-based
# THP-1 [18] = experiment: Induction of apoptosis in human THP1 cells assessed as non-viable necrotic cells at 2000 nM after 24 hrs by FITC-conjugated annexin V and propidium iodide staining-based flow cytometry; assay type: functional
# HL-60 [19] = experiment: Induction of apoptosis in human HL60 cells assessed as decrease in PARP level at 250 nM after 24 hrs by Western blot analysis; assay type: functional, cell-based
# DLD-1 = experiment: Cytotoxicity against human DLD1 cells after 22 hrs by MTS assay; assay type: functional, cell-based; details: DLD-1, 22 h
# [20] = biological target: Cellular tumor antigen p53 (Mus musculus) (UniProt P02340); experiment: Inhibition of p53-mediated transcriptional activity in mouse JB6 Cl41 cells at 125 to 500 nM by luciferase reporter gene assay; assay type: cell-based; details: TDE = time-dependent effect
# HL-60 [21] = experiment: Induction of apoptosis in human HL60 cells assessed as decrease in procaspase-8 level at 500 nM after 24 hrs by Western blot analysis; assay type: functional, cell-based
# THP-1 [22] = experiment: Induction of apoptosis in human THP1 cells assessed as viable cells at 2000 nM after 24 hrs by FITC-conjugated annexin V and propidium iodide staining-based flow cytometry; assay type: functional; details: THP-1, 24 h, read-out: Activity
# MDA-MB-231 = experiment: Cytotoxicity against human MDA-MB-231 cells after 22 hrs by MTS assay; assay type: functional, cell-based; details: MDA-MB-231, 22 h
# [23] = Inhibition of EGF-stimulated viability of mouse JB6 Cl41 cells after 22 hrs by MTS assay; assay type: functional, cell-based; details: JB6 Cl41, 22 h
# SK-MEL-28 = experiment: Anticancer activity in human SK-MEL-28 cells assessed as inhibition of colony formation by anchorage-independent soft agar assay; assay type: functional
# [24] = biological target: Transcription factor Jun (Mus musculus) (UniProt P05627); experiment: Induction of AP1-mediated transcriptional activity in mouse JB6 Cl41 cells at 125 to 250 nM after 6 hrs by luciferase reporter gene assay relative to control; assay type: cell-based
# HL-60 [25] = experiment: Selectivity ratio of INCC50 for human HL60 cells to IC50 for human HL60 cells; assay type: functional
# THP-1 [26] = experiment: Induction of apoptosis in human THP1 cells assessed as late apoptotic cells at 500 nM after 24 hrs by FITC-conjugated annexin V and propidium iodide staining-based flow cytometry; assay type: functional
# [27] = Inhibition of EGF-stimulated colony formation in mouse JB6 Cl41 cells by anchorage-independent soft agar assay; assay type: functional
# HL-60 [28] = experiment: Induction of apoptosis in human HL60 cells assessed as decrease in PARP level at 500 nM after 24 hrs by Western blot analysis; assay type: functional, cell-based
# HL-60 [29] = experiment: Induction of apoptosis in human HL60 cells assessed as total apoptotic cells at 1000 nM after 24 hrs by FITC-conjugated annexin V and propidium iodide staining-based flow cytometry; assay type: functional
# THP-1 [30] = experiment: Induction of apoptosis in human THP1 cells assessed as early apoptotic cells at 2000 nM after 24 hrs by FITC-conjugated annexin V and propidium iodide staining-based flow cytometry; assay type: functional
# Sequence of Cellular tumor antigen p53 (Mus musculus) (P02340 whole entry): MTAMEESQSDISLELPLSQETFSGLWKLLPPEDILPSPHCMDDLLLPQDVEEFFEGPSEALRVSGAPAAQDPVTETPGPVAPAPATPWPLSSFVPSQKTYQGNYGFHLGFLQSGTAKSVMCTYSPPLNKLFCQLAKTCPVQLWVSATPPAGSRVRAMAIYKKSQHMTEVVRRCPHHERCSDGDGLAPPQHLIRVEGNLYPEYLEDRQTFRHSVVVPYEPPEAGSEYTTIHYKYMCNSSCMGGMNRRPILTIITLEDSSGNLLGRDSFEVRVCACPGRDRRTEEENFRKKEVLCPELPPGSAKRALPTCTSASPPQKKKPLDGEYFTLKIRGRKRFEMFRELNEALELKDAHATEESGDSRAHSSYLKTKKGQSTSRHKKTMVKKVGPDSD
# Sequence of Transcription factor Jun (Mus musculus) (P05627 whole entry): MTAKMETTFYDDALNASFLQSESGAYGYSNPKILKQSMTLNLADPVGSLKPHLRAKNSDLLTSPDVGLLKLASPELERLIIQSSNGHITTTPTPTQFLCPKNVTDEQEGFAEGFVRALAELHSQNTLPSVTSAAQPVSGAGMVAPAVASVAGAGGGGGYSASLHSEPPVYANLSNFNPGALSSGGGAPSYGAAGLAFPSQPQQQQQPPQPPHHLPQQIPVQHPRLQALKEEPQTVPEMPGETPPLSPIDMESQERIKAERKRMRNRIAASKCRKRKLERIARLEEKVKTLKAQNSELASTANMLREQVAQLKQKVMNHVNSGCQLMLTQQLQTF
smiles,measurement,setting,value
O=C1c2ccc(Br)cc2-[n+]2ccc3c([nH]c4ccccc43)c21.[Cl-],inhibition,HL-60 [1],Active
same,Activity,JB6 Cl41 [2],inactive
same,viability at 0.125 µM,[3],60%
same,INCC50,THP-1 [4],59.7 nM
same,viability at 0.25 µM,[5],40%
same,inhibition,JB6 Cl41 [6],Dose-dependent effect
same,Activity,JB6 Cl41 [7],inactive
same,Activity,HL-60 [8],20%
same,IC50,[9],238 nM
same,viability at 0.5 µM,THP-1 [10],68.2%
same,inhibition,HL-60 [11],Active
same,Activity,[12],50%
same,inhibition,[13],40%
same,inhibition,HL-60 [14],Active
same,Activity,HL-60 [15],5%
same,Activity,THP-1 [16],17.9%
same,fold change (FC),[17],1.5
same,Activity,THP-1 [18],23.5%
same,inhibition,HL-60 [19],Active
same,IC50,DLD-1,243 nM
same,inhibition,[20],tde
same,inhibition,HL-60 [21],Active
same,viability at 2 µM,THP-1 [22],25.8%
same,IC50,MDA-MB-231,575 nM
same,IC50,[23],284 nM
same,INCC50,SK-MEL-28,162.9 nM
same,fold change (FC),[24],2
same,Selectivity ratio,HL-60 [25],5.3
same,Activity,THP-1 [26],12.4%
same,INCC50,[27],106.4 nM
same,inhibition,HL-60 [28],Active
same,Activity,HL-60 [29],90%
same,Activity,THP-1 [30],25.8%
